From article PMC11257039, “VCP activator reverses nuclear proteostasis defects and enhances TDP-43 aggregate clearance in multisystem proteinopathy models” (The Journal of Clinical Investigation, 2024)
“And” between values parts separate entries of the source, which are not always exact repeats. Equal entries are not always repeated. Residues, ends and D or L forms follow the SMILES beside them. *: point of attachment. Cbz = O=C(OCc1ccccc1)*

Assays:
Assay type in all cases: cell-based
[1] = test system: R155H HeLa cells expressing TDP-4FL; assay: Immunofluorescence of TDP-4FL inclusion morphology, R155H HeLa
Protocol: (§1) HeLa Cells were plated onto glass coverslips and transfected with TDP-4FL using Fugene HD for 24 hours. Cells were fixed with 4% paraformaldehyde (Electron Microscopy Sciences), permeabilized with 0.1% Triton-X (Thermo Fisher Scientific), and blocked with 2% FBS DPBS. Primary antibodies were diluted in 2% FBS DPBS. Cells were stained with 300 nM DAPI, and coverslips were mounted onto glass slides using ProLong Glass Antifade Mountant (Thermo Fisher Scientific). Confocal images were obtained using a Leica TCS SPE laser scanning confocal microscope. Primary antibodies used include mouse anti-Myc (9E10), rabbit anti-Myc (ab9106), mouse anti-VCP (NB120-11433), and mouse anti-ubiquitin (ST1200, Millipore) with Alexa Flour 488 or 568 (Invitrogen) as secondary antibodies. […]
(§2) morphologies with MG132 treatment.
(§3) (A) High power magnification immunofluorescence confocal images of HeLa cells expressing TDP-4FL stained for myc-TDP (green) Scale bar, 5 µm. (B) Immunofluorescence confocal images of HeLa cells treated with or without 5% 1’6-Hexanediol for 10 minutes stained for myc-TDP (green) or DAPI (blue). Scale bar, 5 µm. (C) Representative confocal microscopy immunofluorescence confocal images of HeLa cells […]
(§4) yellow represent cells that were categorized as anisosome morphology. Nuclei outline in white represent cells that were categorized as aggregate morphology. Cells with approximately more than 50% anisosome inclusions were categorized as anisosome morphology whereas cells with approximately more than 50% aggregate-like inclusions were categorized as aggregate morphology. Binucleate cells were excluded from the total counts. Scale bar, 10 µm.
(§5) (1 picture or pasted object on this page, not shown here)

[2] = test system: A232E HeLa cells expressing TDP-4FL; assay: Immunofluorescence of TDP-4FL inclusion morphology, A232E HeLa
Protocol: as §1, §2, §3, §4, §5

[3] = test system: WT HeLa cells expressing TDP-4FL; assay: Immunofluorescence of TDP-4FL inclusion morphology, WT HeLa; conditions: for Proportion of Morphology: Aggregate / Proportion of Morphology: Anisosome: WT
Protocol: HeLa Cells were plated onto glass coverslips and transfected with TDP-4FL using Fugene HD for 24 hours. Cells were fixed with 4% paraformaldehyde (Electron Microscopy Sciences), permeabilized with 0.1% Triton-X (Thermo Fisher Scientific), and blocked with 2% FBS DPBS. Primary antibodies were diluted in 2% FBS DPBS. Cells were stained with 300 nM DAPI, and coverslips were mounted onto glass slides using ProLong Glass Antifade Mountant (Thermo Fisher Scientific). Confocal images were obtained using a Leica TCS SPE laser scanning confocal microscope.
(A) High power magnification immunofluorescence confocal images of HeLa cells expressing TDP-4FL stained for myc-TDP (green) Scale bar, 5 µm. […]
(C) Representative confocal microscopy immunofluorescence confocal images of HeLa cells […]
as §4, §5

## CC(C)C[C@@H](C=O)NC(=O)[C@H](CC(C)C)NC(=O)[C@H](CC(C)C)NC(=O)OCc1ccccc1 [MG132] (Cbz-Leu-Leu-Leu-aldehyde)
[1]; MG132 3 hours
  Proportion of Morphology: Aggregate: 0.608 and 0.623 and 0.684 and 0.640
  Proportion of Morphology: Anisosome: 0.392 and 0.377 and 0.316 and 0.360
[1]; MG132 6 hours
  Proportion of Morphology: Aggregate: 0.768 and 0.744 and 0.727
  Proportion of Morphology: Anisosome: 0.232 and 0.256 and 0.273
[2]; MG132 3 hours
  Proportion of Morphology: Aggregate: 0.604 and 0.568 and 0.630 and 0.595
  Proportion of Morphology: Anisosome: 0.396 and 0.432 and 0.370 and 0.405
[2]; MG132 6 hours
  Proportion of Morphology: Aggregate: 0.766 and 0.785 and 0.833
  Proportion of Morphology: Anisosome: 0.234 and 0.215 and 0.167
[3]; 4 μM MG132, 1 μM ixazomib or 1 μM epoxomicin, 3 or 6 hours
  TDP-4FL inclusion size and morphology upon proteasome inhibition: coalesced into larger, irregularly shaped aggregates
[3]; MG132 3 hours
  Proportion of Morphology: Aggregate: 0.538 and 0.500 and 0.591 and 0.474
  Proportion of Morphology: Anisosome: 0.462 and 0.500 and 0.409 and 0.526
[3]; MG132 6 hours
  Proportion of Morphology: Aggregate: 0.636 and 0.719 and 0.766
  Proportion of Morphology: Anisosome: 0.364 and 0.281 and 0.234
